Experimental data: patent US20230414776A1, “Small Molecule-Nanobody Conjugate Inducers of Proximity (SNACIP) and Preparation Methods and Use thereof” (Harbin Institute of Technology, priority 2022, published 2023)

Legend:
Format in all cases: cell-based
mEYFP = assay: Regulation of GFP mutant mEYFP localization; conditions: TMP 10 μM, 10 min
Excerpt: Yellow fluorescent protein mEYFP and turquoise fluorescent protein mTurquoise2 are close mutants of the GFP. […] This is an interesting phenomenon, but can also be reasonably explained: Asn146 in GFP, a residue that has a key hydrogen-bonding interaction with the Asn99 residue of GBP, is retained in EGFP and mEYFP, but is mutated to Ile146 in mTurquoise2. […] Therefore, cRGT is an all-rounder, can regulate the proteins of interest to which EGFP, mEYFP and eDHFR are fused, and also has good orthogonality to other fluorescent proteins.

EGFP in HeLa cells = assay: Localization of EGFP to subcellular structures; conditions: TMP 10 μM, 10 min
Experimental: Treatment of living cells with an SNACIP inducer of dimerization for microscopic imaging: Unless otherwise specified, first a DMEM complete medium of the cells is replaced with a phenol red-free imaging medium of the SNACIP inducer of dimerization of the corresponding concentration, and then imaging is performed after incubation for a given period of time. For cRGT, the concentration represents an effective ratio of cRGT; and near-complete dimerization regulation may be achieved without washing off excess cRGT before imaging.
Many cellular processes are regulated by dynamic distribution of proteins in the cell.

Rac1 = Rac1 localization to plasma membrane and lamellipodia formation by cRGT
Excerpt: A constitutively active mutant EGFP-NES-Rac1Q61LΔCAAX (G-NES-Rac1 for short, green, cytoplasmic distribution) without the plasma membrane targeting ability and lacking the CAAX-box sequence and mCherry-eDHFR-CAAX (red, plasma membrane localized), being co-expressed in living HeLa cells; treatment of the HeLa cells with cRGT will localize the Rac1 mutant to the functional location of the plasma membrane, which in turn induces a signaling cascade process during lamellipodia formation. Confocal micrographs of representative living HeLa cells co-expressing G-NES-Rac1 and mCherry-eDHFR-CAAX, before treatment with cRGT (Pre), after treatment with 24 μM cRGT, and after addition of TMP at a final concentration of 10 μM. Statistical analysis of colocalization between the EGFP channel and the mCherry channel by PCC were shown. Statistical analysis of cell areas before treatment with cRGT (Pre), after treatment with 24 μM cRGT, and after treatment with TMP at a final concentration of 10 μM was also shown. […] Curve comparison of streak analysis of cells after dimerization induced by cRGT and TMP-Cl. […] Abbreviations in the pictures: mCherry is abbreviated as mChe or R; EGFP is abbreviated as G; mTurquoise2 is abbreviated as mTurq or C; eDHFR is abbreviated as ED; HaloTag is abbreviated as HT. All scales: 10 μm. […]

eDHFR and HaloTag = assay: TMP-Cl induced targeting of Rac1 to plasma membrane (eDHFR/HaloTag); conditions: TMP-Cl 10 μM, 1 h, excess washed off 30 min, HeLa

| SMILES | reversal of mEYFP localization (mEYFP) | reversal of Golgi localization (EGFP in HeLa cells) | reversal of mitochondrial localization (EGFP in HeLa cells) | reversal of Rac1 localization and morphology change (Rac1; 10 μM TMP) | average area of cells after TMP addition (Rac1; 10 μM TMP after cRGT) | PCC of colocalization (eDHFR and HaloTag) |
| --- | --- | --- | --- | --- | --- | --- |
| COc1cc(Cc2cnc(N)nc2N)cc(OC)c1OC [TMP, trimethoprim] | rapidly reversible | also rapidly reversible | rapidly reversible | completely reversed | decreased significantly |  |
| COc1cc(Cc2cnc(N)nc2N)cc(OC)c1OCCOCCOCCOCCOCCOCCCCCCCl [TMP-Cl] |  |  |  |  |  | around 0.7 |
